Patent US10010574B2, “Silk peptide for improving neuroprotective and neurofunctional effects and a method of its preparation” (BRAINGUARD CO., LTD., priority 2004, dated 2018)

System: depression animal model
Test: Forced swimming test (depression animal model)
Assay type: in vivo, Sprague Dawley rats
Conditions: P<0.05
Procedure: Four Sprague Dawley rats (140-180 g, Dae Han BioLink Co., Korea) each box were placed under constant condition (temperature: 25±1° C., relative humidity: 60±10%), and fed with unlimited water and food for 1 week. Fifty rats were selected for experiment among the rats by excluding ones that were undeveloped, show less motion or abnormal behavior in forced swimming test.
As a standard method for behavioral despair test, a forced swimming test (FST) was used in this experiment, which is known as principal test for verify anti-depression efficacy.
A rat was placed for 15 minutes in a transparent cylindrical water tank with 40 cm of height and 18 cm of diameter, which was filled with 15 cm deep water. […] The immobilization state typically refers to a state that a rat pushes only its head above the surface and was in a minimum motion for keeping itself afloat. After forced swimming test, the rat was dried at 37° C. for 30 minutes and returned to the box.
After 24 hours, the second forced swimming was performed for 5 minutes under the same condition with the first forced swimming test, and total immobilization time was measured. […] The immobilization time was measured by recording total process of the forced swimming and comparing between the control group and the experiment group. Values measured by 3 different analyzers were averaged and used as an analysis data. […]

SMILES: CN(C)CCCN1c2ccccc2CCc2ccccc21 [imipramine]
- Average immobilization time, 7-day repeated administration (oral one time a day for 7 days, FIG. 23): significantly decreased
- Average immobilization time, one time urgent administration (silk peptide 1 g/kg oral, imipramine 20 mg/kg, 1 hour before second forced swimming, FIG. 22): significantly decreased
